The target of one assay is T1, PI3Kγ (p120γ) (Homo sapiens, UniProt P48736).
T1 construct: purchased Promega V1761
Nature of the assay: Inhibition of PI3K kinase activity (ADP Glo), PI3Kγ. The following applies: read-out: biochemical potency (PI3Kγ IC50). Here is the method: Compounds were evaluated to determine the potency with which they inhibited the kinase activity of the Class I PI3K subunits p110α/p85α (Promega, Cat #V1721), p110β/p85α (Promega, Cat #V1751), p120γ (Promega, Cat #V1761) and p110δ/p85α (Promega, Cat #V1771). Activity was determined as a function of ADP (adenosine diphosphate) generated from ATP consumed during the phosphorylation of Phosphatidylinositol 4,5-bisphosphate (PIP2) (Promega, Cat #V1701) to yield Phosphatidylinositol (3,4,5)-trisphosphate (PIP3). ADP levels in the assay mixture at the end of the reaction were quantitated using ADP Glo (Promega, Cat #V9103) according to the manufacturer's recommended protocol.
Enzyme was prepared for each of the PI3K subunits in 100 mM HEPES, pH 7.4, 100 mM NaCl, 6 mM MgCl2 and 0.05% BSA. p110α/p85α was prepared at 2 nM (2×), p110β/p85α was prepared at 7 nM (2×), p120γ was prepared at 8 nM (2×) and p110δ/p85α was prepared at 2 nM (2×). Five microliters of 2× enzyme dilution of each PI3K subunit were added to a 384-well white Opti-plates pre-dispensed with compound and allowed to incubate for 1 h at rt. A substrate mix containing 0.1 mg/ml (2×) of PIP2 and 50 μM (2×) ATP (Promega, Cat #V915) was prepared in 25 mM HEPES and 0.5 mM EGTA. Reactions were initiated by addition of 5 μl of 2× substrate mix to each well of the plates containing various PI3K isoforms and allowed to proceed for 60 min at rt. Ten microliters of ADP Glo reagent 1 were added to the wells of each plate and allowed to incubate at rt for 45 min according to the manufacturer's directions. Following incubation, 20 μl of ADP Glo reagent 2 was added to each plate and allowed to incubate for an additional 45 min. Luminescent signal, generated by ADP Glo, was quantified by reading on a Perkin Elmer Envision multimode reader. Compound potencies (IC50's) were determined using a standard 4-parameter fit non-linear regression fit.
In general terms: ADP-Glo turns the ADP formed in a reaction into a luminescent signal.

Another assay concerns the target T2, PI3Kγ (Homo sapiens, UniProt P48736).
T2 construct: host or cells: THP-1
The assay is described as follows: PI3Kγ cellular assay in THP-1 cells (AKT pS473 AlphaLISA). The assay is classed as cell-based. Here is the method:
Twenty microliters of serum starved THP-1 cells were added to the compound plate in serum free DMEM at a density of 9×10^6 cells per ml. Final assay conditions comprised 1.8×10^5 THP-1 cells per well with test compounds in 2% DMSO across a concentration range from 4 nM to 30 μM. […] Briefly, 10 μL of 4× lysis buffer was added to cells after stimulation. Following 60 min incubation at rt, 10 μL of cell lysate was transferred to a fresh 384-well Opti-plate to which 5 μL of AlphaLisa acceptor beads and 5 μL of AlphaLisa donor beads had been added. […] PI3Kγ activity was evaluated as a correlate of endogenous AKT phosphorylation levels. Percentage maximum activity in each test well was calculated based on DMSO (100% activity) and positive control treated cell wells (0% activity). The potencies (IC50's) of test compounds were determined using a standard 4-parameter fit non-linear regression fit.

The mark [1] stands for this setting: Table 2, rhMCP-1 stimulated AKT pS473, read-out: cellular potency (PI3Kγ IC50).
[2] abbreviates: AKT pS473, read-out: cellular potency (PI3Kγ IC50).
Where [3] appears, read: Table 1, rhMCP-1 stimulated AKT pS473, read-out: cellular potency (PI3Kγ IC50).
Where [4] appears, read: Table 3, rhMCP-1 stimulated AKT pS473, read-out: cellular potency (PI3Kγ IC50).

Each structure is given as a SMILES string. Like-named read-outs stand apart in the source and are kept apart here. Where only a bound is given, the exact number is not on record here.

Our source for the IC50 values is patent US20230024302A1, “2,3,5-TRISUBSTITUTED PYRAZOLO[1,5-A]PYRIMIDINE COMPOUNDS” (Arcus Biosciences, Inc., priority 2019, published 2023).

T1 sequence (P48736 whole entry): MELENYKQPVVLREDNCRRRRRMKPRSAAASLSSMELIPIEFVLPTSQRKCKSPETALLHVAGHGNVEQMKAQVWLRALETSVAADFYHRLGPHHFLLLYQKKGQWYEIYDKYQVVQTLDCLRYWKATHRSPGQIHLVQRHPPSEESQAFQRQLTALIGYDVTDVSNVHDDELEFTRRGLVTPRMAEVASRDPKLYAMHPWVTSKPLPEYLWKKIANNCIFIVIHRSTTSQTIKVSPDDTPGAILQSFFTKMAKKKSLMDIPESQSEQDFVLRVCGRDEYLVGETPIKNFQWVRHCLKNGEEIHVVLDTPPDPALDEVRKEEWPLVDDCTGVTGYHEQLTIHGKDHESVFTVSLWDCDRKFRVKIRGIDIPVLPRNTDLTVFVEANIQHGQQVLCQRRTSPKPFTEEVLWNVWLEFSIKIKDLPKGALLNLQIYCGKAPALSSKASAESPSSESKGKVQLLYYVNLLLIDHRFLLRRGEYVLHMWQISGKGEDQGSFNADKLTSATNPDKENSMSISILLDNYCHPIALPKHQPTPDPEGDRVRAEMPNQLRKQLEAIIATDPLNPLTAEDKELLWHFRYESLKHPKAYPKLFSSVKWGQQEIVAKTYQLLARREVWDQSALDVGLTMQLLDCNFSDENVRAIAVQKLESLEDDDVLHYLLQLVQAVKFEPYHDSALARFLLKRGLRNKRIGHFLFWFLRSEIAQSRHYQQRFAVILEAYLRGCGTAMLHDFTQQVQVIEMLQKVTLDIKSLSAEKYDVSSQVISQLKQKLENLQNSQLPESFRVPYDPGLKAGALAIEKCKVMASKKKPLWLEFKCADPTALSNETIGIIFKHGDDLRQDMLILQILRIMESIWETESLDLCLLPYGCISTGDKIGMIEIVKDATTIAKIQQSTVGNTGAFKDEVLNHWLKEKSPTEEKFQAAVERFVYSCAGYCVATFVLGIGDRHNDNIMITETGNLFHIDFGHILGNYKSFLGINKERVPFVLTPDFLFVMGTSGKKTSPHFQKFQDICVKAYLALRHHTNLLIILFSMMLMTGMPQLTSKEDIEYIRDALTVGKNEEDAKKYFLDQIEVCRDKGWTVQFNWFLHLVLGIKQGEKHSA
T2 sequence (P48736 whole entry): as above

On to `Cc1cc(-c2ccn3nc(N)c(C(=O)N[C@@H](C)c4ccncc4)c3n2)cc2c1C(=O)N([C@@H](C)C1CC1)C2` [Example 173], for which the concentration for half-maximal inhibition (IC50) (in general, the midpoint of a concentration-inhibition curve) on PI3Kγ (p120γ) (Table 2, p120γ) is less than 100 nM; at PI3Kγ (setting [1]), 100 to 1000 nM.

Take `C[C@@H](C1CC1)N1Cc2cc(-c3ccn4nc(N)c(C(=O)N[C@@H]5CCCC[C@H]5O)c4n3)cc(NS(C)(=O)=O)c2C1=O` [Example 384]: the IC50 on PI3Kγ (p120γ) is less than 100 nM; at PI3Kγ (setting [2]) it was 100 to 1000 nM.

Regarding `Cc1cc(-c2ccn3nc(N)c(C(=O)N[C@H](C)c4ccncc4)c3n2)cc2c1C(=O)N([C@@H](C)C1CC1)C2` [Example 219], the half-maximal inhibitory concentration (IC50) at PI3Kγ (p120γ) (Table 2, p120γ) is less than 100 nM; at PI3Kγ (setting [1]) it was 100 to 1000 nM.

On to `Cc1cc(-c2ccn3nc(N)c(C(=O)N[C@H]4C[C@H](C(C)(C)O)C4)c3n2)cc2c1C(=O)N([C@@H](C)C1CC1)C2` [Example 14, 2-Amino-5-{2-[(1S)-1-cyclopropylethyl]-7-methyl-1-oxo-2,3-dihydro-1H-isoindol-5-yl}-N-[trans-3-(2-hydroxypropan-2-yl)cyclobutyl]pyrazolo[1,5-a]pyrimidine-3-carboxamide], for which the IC50 on PI3Kγ (p120γ) (Table 1, p120γ) is less than 100 nM; on PI3Kγ (setting [3]), less than 100 nM.

For the compound `C[C@@H](C1CC1)N1Cc2cc(-c3ccn4nc(N)c(C(=O)N[C@@H]5CNC[C@H]5O)c4n3)cc(OC(F)(F)F)c2C1=O` [Example 418], the 50% inhibitory concentration (IC50) on PI3Kγ (p120γ) (Table 6, p120γ) is less than 100 nM; on PI3Kγ (Table 6, rhMCP-1 stimulated AKT pS473, read-out: cellular potency (PI3Kγ IC50)) it was more than 1000 nM.

With `C[C@@H](C1CC1)N1Cc2cc(-c3ccn4nc(N)c(C(=O)N[C@@H](CO)C5CC5)c4n3)cc(NS(C)(=O)=O)c2C1=O` [Example 97, 2-Amino-N-((R)-1-cyclopropyl-2-hydroxyethyl)-5-(2-((S)-1-cyclopropylethyl)-7-(methylsulfonamido)-1-oxoisoindolin-5-yl)pyrazolo[1,5-a]pyrimidine-3-carboxamide], the half-inhibitory concentration (IC50) at PI3Kγ (p120γ) (Table 1, p120γ) is less than 100 nM; on PI3Kγ (setting [3]) it was less than 100 nM.

In the case of `Cc1cc(-c2ccn3nc(N)c(C(=O)NC4(CO)CC4)c3n2)cc2c1C(=O)N([C@@H](C)C1CC1)C2` [Example 246], the IC50 on PI3Kγ (p120γ) (Table 2, p120γ) was less than 100 nM; at PI3Kγ (setting [1]) it was 100 to 1000 nM.

Turning to `Cc1cc(-c2ccn3nc(N)c(C(=O)N[C@H]4CC[C@H](N)CC4)c3n2)cc2c1C(=O)N([C@@H](C)C1CC1)C2` [Example 184], the IC50 is less than 100 nM at PI3Kγ (p120γ) (Table 2, p120γ) and 100 to 1000 nM on PI3Kγ (setting [1]).

As to `Cc1cc(-c2ccn3nc(N)c(C(=O)NC[C@H]4CNC(=O)C4)c3n2)cc2c1C(=O)N([C@@H](C)C1CC1)C2` [Example 276], the IC50 on PI3Kγ (p120γ) (Table 2, p120γ) was less than 100 nM; at PI3Kγ (setting [1]), 100 to 1000 nM.

As to `C[C@@H](C1CC1)N1Cc2cc(-c3ccn4nc(N)c(C(=O)N[C@H]5CC[C@@](C)(O)CC5)c4n3)cc(N3CC[C@@H](O)C3)c2C1=O` [Example 151, 2-Amino-5-{2-[(1S)-1-cyclopropylethyl]-7-[(3R)-3-hydroxypyrrolidin-1-yl]-1-oxo-2,3-dihydro-1H-isoindol-5-yl}-N-[cis-4-hydroxy-4-methylcyclohexyl]pyrazolo[1,5-a]pyrimidine-3-carboxamide], the IC50 on PI3Kγ (p120γ) (Table 1, p120γ) is less than 100 nM; at PI3Kγ (setting [3]), less than 100 nM.

Consider `C[C@@H](C1CC1)N1Cc2cc(-c3ccn4nc(N)c(C(=O)N[C@H]5CC[C@@](C)(O)CC5)c4n3)cc(OC(F)(F)F)c2C1=O` [Example 24, 2-Amino-5-{2-[(1S)-1-cyclopropylethyl]-1-oxo-7-(trifluoromethoxy)-2,3-dihydro-1H-isoindol-5-yl}-N-[cis-4-hydroxy-4-methylcyclohexyl]pyrazolo[1,5-a]pyrimidine-3-carboxamide], for which the IC50 on PI3Kγ (p120γ) (Table 1, p120γ) is less than 100 nM; on PI3Kγ (setting [3]), less than 100 nM.

Turning to `C[C@@H](C1CC1)N1Cc2cc(-c3ccn4nc(N)c(C(=O)N[C@H]5CC[C@](O)(C(F)(F)F)CC5)c4n3)cc(NS(C)(=O)=O)c2C1=O` [Example 90, 2-Amino-5-{2-[(1S)-1-cyclopropylethyl]-7-methanesulfonamido-1-oxo-2,3-dihydro-1H-isoindol-5-yl}-N-[cis-4-hydroxy-4-(trifluoromethyl)cyclohexyl]pyrazolo[1,5-a]pyrimidine-3-carboxamide], the IC50 on PI3Kγ (p120γ) (Table 1, p120γ) is less than 100 nM; on PI3Kγ (setting [3]) it was less than 100 nM.

With `C[C@@H](C1CC1)N1Cc2cc(-c3ccn4nc(N)c(C(=O)NC5(C)COC5)c4n3)cc(C(F)(F)F)c2C1=O` [Example 56, 2-[(S)-1-Cyclopropylethyl]-5-{2-amino-3-[(3-methyl-3-oxetanylamino)carbonyl]-1,4,7a-triaza-5-indenyl}-7-(trifluoromethyl)-1-isoindolinone], the IC50 on PI3Kγ (p120γ) (Table 1, p120γ) was less than 100 nM; on PI3Kγ (setting [3]), less than 100 nM.

For `C[C@@H](C1CC1)N1Cc2cc(-c3ccn4nc(N)c(C(=O)N[C@H]5CNC[C@H]5O)c4n3)cc(C(F)(F)F)c2C1=O` [Example 357], the IC50 on PI3Kγ (p120γ) (Table 3, p120γ) is less than 100 nM; at PI3Kγ (setting [4]) it was more than 1000 nM.

For the compound `C[C@@H](C1CC1)N1Cc2cc(-c3ccn4nc(N)c(C(=O)Nc5ccccn5)c4n3)cc(NS(C)(=O)=O)c2C1=O` [Example 396], the results for the IC50 on PI3Kγ (p120γ) and at PI3Kγ (setting [2]) were less than 100 nM and 100 to 1000 nM, respectively.

For `C[C@@H](C1CC1)N1Cc2cc(-c3ccn4nc(N)c(C(=O)NC[C@@H](O)CO)c4n3)cc(C(F)(F)F)c2C1=O` [Example 344], the IC50 at PI3Kγ (p120γ) (Table 3, p120γ) was less than 100 nM; on PI3Kγ (setting [4]), 100 to 1000 nM.

Turning to `Cc1cc(-c2ccn3nc(N)c(C(=O)N[C@H](C)C4CC4)c3n2)cc2c1C(=O)N([C@@H](C)C1CC1)C2` [Example 278], the IC50 is less than 100 nM on PI3Kγ (p120γ) (Table 2, p120γ) and more than 1000 nM at PI3Kγ (setting [1]).

Take `C[C@@H](C1CC1)N1Cc2cc(-c3ccn4nc(N)c(C(=O)N[C@H]5CC[C@@](C)(O)CC5)c4n3)cc(C(F)(F)F)c2C1=O` [Example 54, 2-[(S)-1-Cyclopropylethyl]-5-{2-amino-3-[(cis-4-hydroxy-4-methylcyclohexylamino)carbonyl]-1,4,7a-triaza-5-indenyl}-7-(trifluoromethyl)-1-isoindolinone]: the IC50 on PI3Kγ (p120γ) (Table 1, p120γ) was less than 100 nM; at PI3Kγ (setting [3]) it was less than 100 nM.

For `C[C@@H](C1CC1)N1Cc2cc(-c3ccn4nc(N)c(C(N)=O)c4n3)cc(OC(F)(F)F)c2C1=O` [Example 39, 5-{2-[(S)-1-Cyclopropylethyl]-7-trifluoromethoxy-5-isoindolinoyl}-2-amino-1,4,7a-triaza-3-indenecarboxamide], the concentration for half-maximal inhibition (IC50) was less than 100 nM at PI3Kγ (p120γ) (Table 1, p120γ) and less than 100 nM at PI3Kγ (setting [3]).

For the compound `Cc1cc(-c2ccn3nc(N)c(C(=O)N[C@@H](C)c4ccccn4)c3n2)cc2c1C(=O)N([C@@H](C)C1CC1)C2` [Example 217], the IC50 on PI3Kγ (p120γ) (Table 2, p120γ) is less than 100 nM; on PI3Kγ (setting [1]), 100 to 1000 nM.

For `COc1ccc(NC(=O)c2c(N)nn3ccc(-c4cc5c(c(NS(C)(=O)=O)c4)C(=O)N([C@@H](C)C4CC4)C5)nc23)cc1` [Example 380], the half-maximal inhibitory concentration (IC50) is less than 100 nM at PI3Kγ (p120γ) and 100 to 1000 nM at PI3Kγ (setting [2]).

For the compound `CC[C@H](N1Cc2cc(-c3ccn4nc(N)c(C(=O)N[C@H]5CC[C@](C)(O)CC5)c4n3)cc(NS(C)(=O)=O)c2C1=O)C(F)(F)F` [Example 127, 2-Amino-5-{7-methanesulfonamido-1-oxo-2-[(2S)-1,1,1-trifluorobutan-2-yl]-2,3-dihydro-1H-isoindol-5-yl}-N-[trans-4-hydroxy-4-methylcyclohexyl]pyrazolo[1,5-a]pyrimidine-3-carboxamide], the IC50 on PI3Kγ (p120γ) (Table 1, p120γ) was less than 100 nM; at PI3Kγ (setting [3]), less than 100 nM.

For the compound `C[C@@H](C1CC1)N1Cc2cc(-c3ccn4nc(N)c(C(=O)NC5CC5)c4n3)cc(S(=O)(=O)N(C)C)c2C1=O` [Example 144, 2-Amino-N-cyclopropyl-5-{2-[(1S)-1-cyclopropylethyl]-7-(dimethylsulfamoyl)-1-oxo-2,3-dihydro-1H-isoindol-5-yl}pyrazolo[1,5-a]pyrimidine-3-carboxamide], the IC50 is less than 100 nM at PI3Kγ (p120γ) (Table 1, p120γ) and less than 100 nM at PI3Kγ (setting [3]).
